Reference: paper PMC13286569 (eLife, 2026)

Target: T1, DcDop2 (Diaphorina citri, UniProt A0A3Q0INR4)
T1 construct: gene LOC103507230; full ORF (2049 nt, 682 residues) in pcDNA3.1, transiently expressed in CHO-WTA11 cells (Galpha16 and aequorin)
T1 sequence (A0A3Q0INR4 1-682): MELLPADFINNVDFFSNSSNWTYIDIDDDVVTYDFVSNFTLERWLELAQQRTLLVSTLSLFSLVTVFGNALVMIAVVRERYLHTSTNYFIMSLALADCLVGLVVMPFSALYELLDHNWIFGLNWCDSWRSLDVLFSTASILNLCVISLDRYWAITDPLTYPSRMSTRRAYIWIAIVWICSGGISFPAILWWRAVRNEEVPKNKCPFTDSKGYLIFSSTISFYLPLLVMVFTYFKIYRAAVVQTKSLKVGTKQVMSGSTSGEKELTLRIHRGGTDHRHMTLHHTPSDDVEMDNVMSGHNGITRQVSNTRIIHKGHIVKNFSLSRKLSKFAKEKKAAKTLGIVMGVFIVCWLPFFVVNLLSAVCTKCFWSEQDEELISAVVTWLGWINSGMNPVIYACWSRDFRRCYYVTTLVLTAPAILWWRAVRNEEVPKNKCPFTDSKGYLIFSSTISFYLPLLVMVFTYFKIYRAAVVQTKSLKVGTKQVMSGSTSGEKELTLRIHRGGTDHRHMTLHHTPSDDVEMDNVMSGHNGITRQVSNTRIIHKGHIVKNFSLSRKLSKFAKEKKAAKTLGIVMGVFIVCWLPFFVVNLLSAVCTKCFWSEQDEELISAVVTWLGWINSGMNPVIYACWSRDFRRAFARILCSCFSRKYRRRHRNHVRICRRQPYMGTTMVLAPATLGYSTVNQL
Test: aequorin calcium mobilization luminescence in transfected CHO-WTA11 cells
Format: cell-based

NCCc1ccc(O)c(O)c1 [DA, dopamine]
EC50: 4.05 nM
